# According to ChEMBL document CHEMBL6103545, “Discovery of GS-2278, a Potent and Selective LPAR1 Antagonist for the Treatment of Idiopathic Pulmonary Fibrosis” (J Med Chem, 2025):
# pEC50, pIC50: −log10 of the molar value.
# Key:
# [1] = biological target: T1, Lysophosphatidic acid receptor 1 (Homo sapiens, UniProt Q92633); experiment: Antagonist activity at LPA1 receptor in serum starved human TWNT-4 cells assessed as nuclear translocation pre-incubated for 1 hr followed by LPA stimulation and measured after 30 min by MRTF-A assay; assay type: cell-based
# T1 sequence (Q92633 whole entry): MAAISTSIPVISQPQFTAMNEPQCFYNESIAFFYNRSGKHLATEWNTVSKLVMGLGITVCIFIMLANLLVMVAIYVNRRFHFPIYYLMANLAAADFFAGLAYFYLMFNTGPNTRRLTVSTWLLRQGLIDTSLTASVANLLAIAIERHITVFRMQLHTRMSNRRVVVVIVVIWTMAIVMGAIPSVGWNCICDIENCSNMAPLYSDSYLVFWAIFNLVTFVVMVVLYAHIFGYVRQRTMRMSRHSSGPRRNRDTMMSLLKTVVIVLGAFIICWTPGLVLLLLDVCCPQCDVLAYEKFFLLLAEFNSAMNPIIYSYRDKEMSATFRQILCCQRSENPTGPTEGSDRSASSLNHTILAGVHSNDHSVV
# [2] = Lipophilicity, logD of compound at pH 7.4; assay type: physicochemical; conditions: buffer
# [3] = Plasma protein binding in human assessed as unbound fraction incubated for 24 hrs by equilibrium dialysis based Rapidfire-QToF mass spectrometric analysis; assay type: ADME, cell-free
# [4] = Volume of distribution in Beagle dog at 1 mg/kg, iv measured after 24 hrs by LC/MS/MS analysis; assay type: ADME, organism-based, Canis lupus familiaris; conditions: in vivo
# [5] = AUC (0 to 24 hrs) in male Sprague-Dawley rat at 5 mg/kg, po measured after 24 hrs by LC/MS/MS analysis; assay type: ADME, organism-based; conditions: in vivo
# [6] = AUC (0 to 24 hrs) in Beagle dog at 5 mg/kg, po measured after 24 hrs by LC/MS/MS analysis; assay type: ADME, organism-based, Canis lupus familiaris; conditions: in vivo
# [7] = AUC (0 to 24 hrs) in cynomolgus monkey at 5 mg/kg, po measured after 24 hrs by LC/MS/MS analysis; assay type: ADME, organism-based, Macaca fascicularis; conditions: in vivo
# [8] = Half-life in cynomolgus monkey at 5 mg/kg, po measured after 24 hrs by LC/MS/MS analysis; assay type: ADME, organism-based, Macaca fascicularis; conditions: in vivo
# [9] = Half-life in male Sprague-Dawley rat at 5 mg/kg, po measured after 24 hrs by LC/MS/MS analysis; assay type: ADME, organism-based; conditions: in vivo
# [10] = Drug metabolism in Beagle dog hepatocyte assessed as (R)-1-(2,5-Difluoropyridin-3-yl)ethyl[4-(5-Aminopyridin-2-yl)-1-methyl-1H-1,2,3-triazol-5-yl]carbamate Hydrochloride metabolite formation at 1 uM by LC/MS/MS analysis; assay type: ADME, Canis lupus familiaris; conditions: hepatocytes
# [11] = Drug metabolism in female CD-1 mouse assessed as (R)-1-(2,5-Difluoropyridin-3-yl)ethyl (4-(5-Acetamidopyridin-2-yl)-1-methyl-1H-1,2,3-triazol-5-yl)carbamate metabolite formation at 1 uM by LC/MS/MS analysis; assay type: ADME
# [12] = biological target: T1, Lysophosphatidic acid receptor 1; experiment: Antagonist activity at human LPA1 receptor overexpressed in CHO cells pre-incubated for 1 hr followed by LPA addition by fluorescence based FLIPR calcium assay; assay type: functional, cell-based
# [13] = biological target: T1, Lysophosphatidic acid receptor 1; experiment: Antagonist activity at human LPA1 receptor expressed in HEK293 cells assessed as Galpha12 effector recruitment incubated for 10 mins by BRET assay; assay type: functional, cell-based
# [14] = biological target: T1, Lysophosphatidic acid receptor 1; experiment: Antagonist activity at human LPA1 receptor expressed in HEK293 cells assessed as Galpha13 effector recruitment incubated for 10 mins by BRET assay; assay type: functional, cell-based
# [15] = Apparent permeability from apical to basolateral side in human Caco-2 cells at 10 uM; assay type: ADME, cell-based
# [16] = Apparent permeability from basolateral to apical side in human Caco-2 cells at 10 uM; assay type: ADME, cell-based
# [17] = Plasma protein binding in human assessed as unbound fraction at 2 uM incubated for 24 hrs by LC-MS analysis; assay type: ADME, cell-free
# BCRP (human) [18] = experiment: Apparent permeability from apical to basolateral side of human BCRP transfected MDCK cells measured after 20 min by LC/MS/MS analysis; assay type: ADME, cell-based, Canis lupus familiaris; conditions: dog
# BCRP (human) [19] = experiment: Apparent permeability from basolateral to apical side of human BCRP transfected MDCK cells measured after 20 min by LC/MS/MS analysis; assay type: ADME, cell-based, Canis lupus familiaris; conditions: dog
# [20] = Mutagenicity in Salmonella typhimurium TA98 by Ames assay; assay type: toxicity; conditions: salmonella enterica subsp. enterica serovar typhimurium
# Bile salt export pump = Bile salt export pump (Homo sapiens, UniProt O95342); experiment: Inhibition of BSEP in human hepatocyte by LC-MS analysis; assay type: cell-based
# Sequence of Bile salt export pump (O95342 whole entry): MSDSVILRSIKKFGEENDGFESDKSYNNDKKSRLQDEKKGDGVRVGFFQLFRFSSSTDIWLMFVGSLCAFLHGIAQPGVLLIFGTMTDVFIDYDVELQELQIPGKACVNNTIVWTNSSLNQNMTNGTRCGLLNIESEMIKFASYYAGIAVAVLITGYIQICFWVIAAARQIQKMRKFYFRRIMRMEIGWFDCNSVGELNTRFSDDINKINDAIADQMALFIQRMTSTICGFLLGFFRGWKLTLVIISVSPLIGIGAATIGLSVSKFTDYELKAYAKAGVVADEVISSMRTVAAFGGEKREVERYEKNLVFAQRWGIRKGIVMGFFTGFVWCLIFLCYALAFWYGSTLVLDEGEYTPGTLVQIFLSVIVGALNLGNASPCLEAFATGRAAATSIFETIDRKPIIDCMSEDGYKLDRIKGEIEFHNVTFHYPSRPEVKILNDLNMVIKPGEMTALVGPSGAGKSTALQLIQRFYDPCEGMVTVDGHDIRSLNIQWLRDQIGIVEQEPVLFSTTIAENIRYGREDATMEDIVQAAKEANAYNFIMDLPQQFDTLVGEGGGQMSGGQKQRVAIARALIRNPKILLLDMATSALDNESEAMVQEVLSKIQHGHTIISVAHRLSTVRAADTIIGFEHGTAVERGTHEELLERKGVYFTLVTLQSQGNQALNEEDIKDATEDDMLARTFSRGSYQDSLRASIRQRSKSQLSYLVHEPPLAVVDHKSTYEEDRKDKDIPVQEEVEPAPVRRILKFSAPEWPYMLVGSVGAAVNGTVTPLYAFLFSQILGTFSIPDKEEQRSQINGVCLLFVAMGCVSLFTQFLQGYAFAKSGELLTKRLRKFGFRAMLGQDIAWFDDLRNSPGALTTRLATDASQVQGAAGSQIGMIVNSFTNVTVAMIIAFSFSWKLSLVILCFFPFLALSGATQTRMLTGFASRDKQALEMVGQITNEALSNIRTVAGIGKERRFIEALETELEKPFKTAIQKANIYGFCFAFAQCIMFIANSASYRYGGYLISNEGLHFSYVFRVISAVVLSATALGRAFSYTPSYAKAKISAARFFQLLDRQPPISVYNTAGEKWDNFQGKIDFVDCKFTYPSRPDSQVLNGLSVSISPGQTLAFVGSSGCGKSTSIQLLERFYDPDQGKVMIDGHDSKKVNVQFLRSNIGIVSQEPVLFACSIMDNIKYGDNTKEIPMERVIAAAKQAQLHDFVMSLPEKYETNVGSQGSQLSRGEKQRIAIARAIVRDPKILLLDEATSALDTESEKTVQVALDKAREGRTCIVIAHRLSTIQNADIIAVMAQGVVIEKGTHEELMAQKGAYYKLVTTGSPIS
# Cytochrome P450 2B6 = biological target: T2, Cytochrome P450 2B6 (Homo sapiens, UniProt P20813); experiment: Inhibition of CYP2B6 (unknown origin) using midazolam as substrate; assay type: ADME
# T2 sequence (P20813 whole entry): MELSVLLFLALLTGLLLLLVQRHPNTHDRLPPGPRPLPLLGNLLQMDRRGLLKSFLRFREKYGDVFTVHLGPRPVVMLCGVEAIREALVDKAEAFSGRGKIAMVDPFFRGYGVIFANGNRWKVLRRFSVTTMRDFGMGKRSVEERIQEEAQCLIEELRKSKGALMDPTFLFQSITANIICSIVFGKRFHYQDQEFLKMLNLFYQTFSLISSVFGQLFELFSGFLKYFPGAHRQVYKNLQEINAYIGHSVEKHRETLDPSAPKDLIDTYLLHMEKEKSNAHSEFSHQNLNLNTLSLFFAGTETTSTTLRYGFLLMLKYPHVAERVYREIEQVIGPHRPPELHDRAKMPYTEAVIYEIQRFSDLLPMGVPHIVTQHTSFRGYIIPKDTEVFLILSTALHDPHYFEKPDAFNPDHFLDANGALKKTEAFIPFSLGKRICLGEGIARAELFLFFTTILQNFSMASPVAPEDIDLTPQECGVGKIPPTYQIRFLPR
# Cytochrome P450 2C8 = biological target: T3, Cytochrome P450 2C8 (Homo sapiens, UniProt P10632); experiment: Inhibition of CYP2C8 (unknown origin) using midazolam as substrate; assay type: ADME
# T3 sequence (P10632 whole entry): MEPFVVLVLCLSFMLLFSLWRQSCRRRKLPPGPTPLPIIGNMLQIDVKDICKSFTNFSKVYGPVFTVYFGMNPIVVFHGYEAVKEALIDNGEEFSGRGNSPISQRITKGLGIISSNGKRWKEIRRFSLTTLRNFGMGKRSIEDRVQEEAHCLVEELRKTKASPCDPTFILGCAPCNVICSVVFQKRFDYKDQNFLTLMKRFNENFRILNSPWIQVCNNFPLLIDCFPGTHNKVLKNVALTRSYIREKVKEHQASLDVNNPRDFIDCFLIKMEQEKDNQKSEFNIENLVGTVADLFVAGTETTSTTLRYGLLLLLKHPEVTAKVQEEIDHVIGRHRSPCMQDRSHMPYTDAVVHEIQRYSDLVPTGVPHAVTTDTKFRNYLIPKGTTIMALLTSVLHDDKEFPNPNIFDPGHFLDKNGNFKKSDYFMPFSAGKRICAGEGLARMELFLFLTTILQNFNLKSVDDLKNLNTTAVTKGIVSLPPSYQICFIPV
# Cytochrome P450 2C9 = Cytochrome P450 2C9 (Homo sapiens, UniProt P11712); experiment: Inhibition of CYP2C9 (unknown origin) using midazolam as substrate; assay type: ADME
# Sequence of Cytochrome P450 2C9 (P11712 whole entry): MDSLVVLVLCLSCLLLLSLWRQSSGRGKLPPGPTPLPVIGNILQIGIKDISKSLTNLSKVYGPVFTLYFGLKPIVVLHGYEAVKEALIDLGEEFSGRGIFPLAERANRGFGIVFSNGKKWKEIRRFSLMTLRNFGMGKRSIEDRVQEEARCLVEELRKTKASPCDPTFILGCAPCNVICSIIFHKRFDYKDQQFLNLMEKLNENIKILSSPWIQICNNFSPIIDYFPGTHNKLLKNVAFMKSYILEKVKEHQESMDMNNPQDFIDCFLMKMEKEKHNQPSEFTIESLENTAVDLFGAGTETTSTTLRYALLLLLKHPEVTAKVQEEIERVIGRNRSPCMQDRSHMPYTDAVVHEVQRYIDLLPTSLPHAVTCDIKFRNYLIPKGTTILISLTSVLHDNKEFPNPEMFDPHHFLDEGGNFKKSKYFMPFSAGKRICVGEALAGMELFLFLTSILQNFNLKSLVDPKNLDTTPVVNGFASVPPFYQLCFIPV
# Cytochrome P450 2C19 = Cytochrome P450 2C19 (Homo sapiens, UniProt P33261); experiment: Inhibition of CYP2C19 (unknown origin) using midazolam as substrate; assay type: ADME
# Sequence of Cytochrome P450 2C19 (P33261 whole entry): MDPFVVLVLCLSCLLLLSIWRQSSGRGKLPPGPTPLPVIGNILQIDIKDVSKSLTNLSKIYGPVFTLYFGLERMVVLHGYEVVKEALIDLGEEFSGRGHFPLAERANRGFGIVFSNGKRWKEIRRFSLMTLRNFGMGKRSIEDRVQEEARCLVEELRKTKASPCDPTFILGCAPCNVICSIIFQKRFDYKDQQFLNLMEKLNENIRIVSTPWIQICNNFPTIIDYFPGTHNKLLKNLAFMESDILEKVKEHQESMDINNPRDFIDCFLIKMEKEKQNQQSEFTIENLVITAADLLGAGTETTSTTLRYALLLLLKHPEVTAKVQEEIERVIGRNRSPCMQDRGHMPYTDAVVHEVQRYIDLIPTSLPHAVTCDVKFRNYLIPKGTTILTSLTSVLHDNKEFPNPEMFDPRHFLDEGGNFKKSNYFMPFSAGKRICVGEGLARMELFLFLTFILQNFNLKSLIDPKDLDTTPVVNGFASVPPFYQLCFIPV
# Cytochrome P450 2D6 = Cytochrome P450 2D6 (Homo sapiens, UniProt P10635); experiment: Inhibition of CYP2D6 (unknown origin) using midazolam as substrate; assay type: ADME
# Sequence of Cytochrome P450 2D6 (P10635 whole entry): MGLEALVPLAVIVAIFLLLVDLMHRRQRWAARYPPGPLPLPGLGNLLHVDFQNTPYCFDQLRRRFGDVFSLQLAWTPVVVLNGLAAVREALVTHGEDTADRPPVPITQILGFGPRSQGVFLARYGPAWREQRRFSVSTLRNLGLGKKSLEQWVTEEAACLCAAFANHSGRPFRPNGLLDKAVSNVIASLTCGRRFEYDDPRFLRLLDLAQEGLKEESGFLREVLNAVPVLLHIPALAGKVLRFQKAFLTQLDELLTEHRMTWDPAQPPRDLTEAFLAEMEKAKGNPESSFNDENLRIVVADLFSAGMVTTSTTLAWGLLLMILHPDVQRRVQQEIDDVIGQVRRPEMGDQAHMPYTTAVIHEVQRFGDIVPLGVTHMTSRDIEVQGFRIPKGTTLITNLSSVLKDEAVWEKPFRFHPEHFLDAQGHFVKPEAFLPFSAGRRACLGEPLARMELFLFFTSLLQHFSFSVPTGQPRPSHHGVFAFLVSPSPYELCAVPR
# Cytochrome P450 3A = Cytochrome P450 3A (Homo sapiens, UniProt P08684+P20815+Q9HB55+P24462); experiment: Inhibition of CYP3A (unknown origin) using midazolam as substrate; assay type: ADME, protein assay
# [21] = Toxicity in Beagle dog CNS at 30 mg/kg/day, po measured after 28 days by radiotelemetry; assay type: organism-based, Canis lupus familiaris; conditions: in vivo, 672 h, time 28 day
compound,measurement,setting,value
C[C@@H](OC(=O)Nc1c(-c2ccc(NC(=O)c3cnc(C(F)(F)F)nc3)cn2)nnn1C)c1cc(F)cnc1F,pEC50,[1],7.92
same,logD,[2],2.7
same,fraction unbound at 24 h,[3],0.19
same,Vd,[4],0.4 L/kg
same,AUC(0-t) at 24 h,[5],5.1 µM·h
same,AUC(0-t) at 24 h,[6],54 µM·h
same,AUC(0-t) at 24 h,[7],8.9 µM·h
same,half-life,[8],3.9 h
same,half-life,[9],3.9 h
same,Drug metabolism,[10],metabolite_detected
same,Drug metabolism,[11],metabolite_detected
same,pEC50,[12],7.42
same,pEC50,[13],6.97
same,pEC50,[14],7.15
same,Papp A→B at 10 µM,[15],4 nm/s
same,Papp B→A at 10 µM,[16],170 nm/s
same,"fraction unbound at 24 h, 2 µM",[17],0.14
same,Papp A→B at 20 min,BCRP (human) [18],< 0.1 nm/s
same,Papp B→A at 20 min,BCRP (human) [19],120 nm/s
same,Activity,[20],Non-toxic
same,pIC50,Bile salt export pump,4.66
same,inhibition (INH),Cytochrome P450 2B6,Not_active
same,inhibition (INH),Cytochrome P450 2C8,Not_active
same,inhibition (INH),Cytochrome P450 2C9,Not_active
same,inhibition (INH),Cytochrome P450 2C19,Not_active
same,inhibition (INH),Cytochrome P450 2D6,Not_active
same,inhibition (INH),Cytochrome P450 3A,Not_active
same,Activity,[21],Non-toxic
